Source: patent EP2548876A1, “New CRTh2 antagonists” (Almirall, S.A., priority 2011, dated 2013)

Molecular target: T1, CRTh2 receptor (Homo sapiens, UniProt Q9Y5Y4)
T1 construct: expressed in transfected cells; host or cells: CHO.K1 cells (membranes)
T1 sequence (Q9Y5Y4 1-395): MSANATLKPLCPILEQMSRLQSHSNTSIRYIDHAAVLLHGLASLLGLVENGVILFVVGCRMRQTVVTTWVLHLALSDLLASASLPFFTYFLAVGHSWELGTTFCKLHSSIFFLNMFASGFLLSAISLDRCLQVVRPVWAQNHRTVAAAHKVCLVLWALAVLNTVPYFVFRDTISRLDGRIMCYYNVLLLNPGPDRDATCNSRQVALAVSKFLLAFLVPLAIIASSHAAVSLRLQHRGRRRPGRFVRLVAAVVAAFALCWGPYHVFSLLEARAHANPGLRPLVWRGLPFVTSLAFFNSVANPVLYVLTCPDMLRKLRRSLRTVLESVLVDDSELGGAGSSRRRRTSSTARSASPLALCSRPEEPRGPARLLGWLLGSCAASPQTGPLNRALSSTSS
Assay: CRTh2 GTPγS antagonism binding assay
Type: biochemical
Conditions: membranes from CHO.K1 cells stably overexpressing the CRTh2 receptor; PGD2 at 50 nM (EC80); 0.1 nM [35S]-GTPγS; 1 h pre-incubation with compound, then 2 h at room temperature; read-out: GTPγ Binding
Method: CRTh2 GTPγS antagonism binding assay
The assay is performed using membranes obtained from CHO.K1 cells stably overexpressing the CRTh2 receptor and [^35S]-GTPγS as radioligand. Assay is performed pre-incubating 4-8 µg of membranes per well with the compound to be tested for 1 h, followed by incubation with PGD2 at 50 nM (EC80), 0.1 nM [^35S]-GTPγS in incubation buffer (20 mM HEPES, 10 mM MgCl2, 100 mM NaCl, 10 µM GDP, 10 µg/ml Saponine and 0.2% BSA) for 2 h at room temperature. The reaction is terminated by filtering in GF/C plates pre-treated with 20 mM HEPES, 10 mM MgCl2, 100 mM NaCl and washing 6 times with wash buffer (20 mM NaH2PO4, 20 mM Na2HPO4). After washing, plates are dried and scintillation buffer Optiphase added. The radioactivity retained in the filter is counted using a Microbeta liquid scintillation counter. Compound IC50 are determined using Excel XL-fit for calculations.

Row | IC50 | Compound
1 | 32 nM | CCN(Cc1cc(C(F)(F)F)ccc1-c1cc(CC(=O)O)c2ccncn12)C(=O)C1CC1 [Example 26, {7-[2-{[(Cyclopropylcarbonyl)(ethyl)amino]methyl}-4-(trifluoromethyl)phenyl]pyrrolo[1,2-c]pyrimidin-5-yl}acetic acid]
2 | 11 nM | CCN(Cc1cc(F)ccc1-c1cn(CC(=O)O)c2ccc(C(F)(F)F)nc12)C(=O)C1CC1 [Example 7, [3-(2-{[(Cyclopropylcarbonyl)(ethyl)amino]methyl}-4-fluorophenyl)-5-(trifluoromethyl)-1H-pyrrolo[3,2-b]pyridin-1-yl]acetic acid]
3 | 13 nM | CCN(Cc1cc(C(F)(F)F)ccc1-c1cc(CC(=O)O)n2cccnc12)C(=O)C1CC1 [Example 20, {8-[2-{[(Cyclopropylcarbonyl)(ethyl)amino]methyl}-4-(trifluoromethyl)phenyl]pyrrolo[1,2-a]pyrimidin-6-yl}acetic acid]
4 | 20 nM | CCN(Cc1cc(F)ccc1-c1cc(CC(=O)O)n2cccnc12)C(=O)C1CC1 [Example 21, [8-(2-{[(Cyclopropylcarbonyl)(ethyl)amino]methyl}-4-fluorophenyl)pyrrolo[1,2-a]pyrimidin-6-yl]acetic acid]
5 | 5 nM | CCN(Cc1ccccc1-n1cc(CC(=O)O)c2ccc(C)nc21)C(=O)C1CC1 [Example 17, [1-(2-{[(Cyclopropylcarbonyl)(ethyl)amino]methyl}phenyl)-6-methyl-1H-pyrrolo[2,3-b]pyridin-3-yl]acetic acid]
6 | 16 nM | CCN(Cc1cc(C(F)(F)F)ccc1-c1cn(CC(=O)O)c2ccc(C)nc12)C(=O)C1CC1 [Example 3, {3-[2-{[(Cyclopropylcarbonyl)(ethyl)amino]methyl}-4-(trifluoromethyl)phenyl]-5-methyl-1H-pyrrolo[3,2-b]pyridin-1-yl}acetic acid]
7 | 7 nM | CCN(Cc1cc(C(F)(F)F)ccc1-c1cc(CC(=O)O)n2ccc(C)nc12)C(=O)C1CC1 [Example 23, {8-[2-{[(Cyclopropylcarbonyl)(ethyl)amino]methyl}-4-(trifluoromethyl)phenyl]-2-methylpyrrolo[1,2-a]pyrimidin-6-yl}acetic acid]
8 | 18 nM | CCN(Cc1cc(C(F)(F)F)ccc1-c1cn(C(C)C(=O)O)c2ccc(C)nc12)C(=O)C1CC1 (stereo not drawn) [Example 6, 2-{3-[2-{[(Cyclopropylcarbonyl)(ethyl)amino]methyl}-4-(trifluoromethyl)phenyl]-5-methyl-1H-pyrrolo[3,2-b]pyridin-1-yl}propanoic acid]
9 | 6 nM | CCN(Cc1cc(C(F)(F)F)ccc1-c1cc(CC(=O)O)n2ccc(C(F)(F)F)nc12)C(=O)C1CC1 [Example 22, [8-[2-{[(Cyclopropylcarbonyl)(ethyl)amino]methyl}-4-(trifluoromethyl)phenyl]-2-(trifluoromethyl)pyrrolo[1,2-a]pyrimidin-6-yl]acetic acid]

The next lines start with the molecule.

Row | Compound | IC50
10 | Cc1ccc2c(n1)c(-c1ccc(C(F)(F)F)cc1CN(Cc1ccccc1)C(=O)C1CC1)cn2CC(=O)O [Example 9, {3-[2-{[Benzyl(cyclopropylcarbonyl)amino]methyl}-4-(trifluoromethyl)phenyl]-5-methyl-1H-pyrrolo[3,2-b]pyridin-1-yl}acetic acid] | 14 nM
11 | CCN(Cc1cc(F)ccc1-c1cn(CC(=O)O)c2cccnc12)C(=O)C1CC1 [Example 2, [3-(2-{[(Cyclopropylcarbonyl)(ethyl)amino]methyl}-4-fluorophenyl)-1H-pyrrolo[3,2-b]pyridin-1-yl]acetic acid] | 10 nM
12 | CCN(Cc1cc(C(F)(F)F)ccc1-n1cc(CC(=O)O)c2cccnc21)C(=O)C1CC1 [Example 12, {1-[2-{[(Cyclopropylcarbonyl)(ethyl)amino]methyl}-4-(trifluoromethyl)phenyl]-1H-pyrrolo[2,3-b]pyridin-3-yl}acetic acid] | 9 nM
13 | CCN(Cc1cc(C(F)(F)F)ccc1-c1cn(CC(=O)O)c2cccnc12)C(=O)C1CC1 [Example 1, {3-[2-{[(Cyclopropylcarbonyl)(ethyl)amino]methyl}-4-(trifluoromethyl)phenyl]-1H-pyrrolo[3,2-b]pyridin-1-yl}acetic acid] | 15 nM
14 | CCN(Cc1cc(F)ccc1-n1cc(CC(=O)O)c2ccc(C)nc21)C(=O)C1CC1 [Example 16, [1-(2-{[(Cyclopropylcarbonyl)(ethyl)amino]methyl}-4-fluorophenyl)-6-methyl-1H-pyrrolo[2,3-b]pyridin-3-yl]acetic acid] | 5 nM
15 | CCN(Cc1cc(F)ccc1-n1cc(CC(=O)O)c2cccnc21)C(=O)C1CC1 [Example 13, [1-(2-{[(Cyclopropylcarbonyl)(ethyl)amino]methyl}-4-fluorophenyl)-1H-pyrrolo[2,3-b]pyridin-3-yl]acetic acid] | 17 nM
